# Test results published in patent US20240208972A1, “LRRK2 INHIBITORS AND USES THEREOF” (NEURON23, INC., priority 2022, published 2024).
# Tests used:
# [1] = Human hepatocyte stability, in vitro h-Hept CLpredict; type: in vitro ADME; conditions: cryopreserved hepatocytes, predicted hepatic clearance, cells without asterisk, read-out: hHep Cl
# Outline: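 Cryopreserved human hepatocytes at 0.5×10^6 viable cells/mL in William's E medium, compound added from 100 μM solution, sampled 0–120 min in duplicate with LC/MS/MS quantitation. t1/2 from parent disappearance converted to CLint, then scaled to predicted hepatic clearance (well-stirred model, fub assumed 1) and extraction ratio.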
# Caco-2 cells = assay: Caco-2 bidirectional permeability; type: in vitro ADME; conditions: for Caco-2 A2B (10^−6 cm/s): A to B; for Caco-2 A2B (10^−6 cm/s) / Caco-2 B2A (10^−6 cm/s): HBSS pH 7.4, 2 hours; for Caco-2 B2A (10^−6 cm/s): B to A; for Caco-2 ER: Efflux Ratio=Papp (BA)/Papp (AB)
# Outline: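 Caco-2 monolayers grown 21–28 days on PET inserts were run in duplicate in HBSS with 10 mM HEPES, pH 7.4. Compound was tested in both directions at […] for 2 h at 37 °C and quantified by LC-MS/MS. Papp, % recovery and efflux ratio (B-A/A-B) were calculated, with lucifer yellow checking monolayer integrity.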
Compound,CLhep predicted at 1 µM [1],Caco-2 A2B (10^−6 cm/s) (Caco-2 cells),Caco-2 B2A (10^−6 cm/s) (Caco-2 cells),Caco-2 ER (Caco-2 cells)
"CCc1n[nH]c2c1N=C(c1c(F)cccc1F)Nc1cnc(N3CCOCC3)cc1-2 [Example 31, 4-[8-(2,6-difluorophenyl)-5-ethyl-3,4,7,9,12-pentazatricyclo[8.4.0.02,6]tetradeca-1(10),2(6),4,7,11,13-hexaen-13-yl]morpholine]",< 6.3 mL/min/kg,H (H (High permeability)”: A2B (B2A)>5),H (H (High permeability)”: A2B (B2A)>5),N (N (Non-substrate)”: ER<2.5)
"Cc1n[nH]c2c1N=C(c1c(F)cccc1F)Nc1cnc(-c3ccn(C(F)F)n3)cc1-2 [Example 12, 13-[1-(difluoromethyl)pyrazol-3-yl]-8-(2,6-difluorophenyl)-5-methyl-3,4,7,9,12-pentazatricyclo[8.4.0.02,6]tetradeca-1(10),2(6),4,7,11,13-hexaene]",< 6.3 mL/min/kg,H (H (High permeability)”: A2B (B2A)>5),H (H (High permeability)”: A2B (B2A)>5),N (N (Non-substrate)”: ER<2.5)
"Cc1n[nH]c2c1N=C(c1c(F)cccc1F)Nc1c-2cc(N2CCN(CC(C)(C)F)CC2)nc1C [Example 5, 5-(2,6-difluorophenyl)-9-(4-(2-fluoro-2-methylpropyl)piperazin-1-yl)-3,7-dimethyl-1,6-dihydropyrazolo[4,3-d]pyrido[4,3-f][1,3]diazepine]",6.3 to 14.7 mL/min/kg,H (H (High permeability)”: A2B (B2A)>5),H (H (High permeability)”: A2B (B2A)>5),N (N (Non-substrate)”: ER<2.5)
"Cc1n[nH]c2c1N=C(c1c(F)cccc1F)Nc1c-2cc(N2CCN(CC(F)F)CC2)nc1C [Example 19, 13-[4-(2,2-difluoroethyl)piperazin-1-yl]-8-(2,6-difluorophenyl)-5,11-dimethyl-3,4,7,9,12-pentazatricyclo[8.4.0.02,6]tetradeca-1(10),2(6),4,7,11,13-hexaene]",6.3 to 14.7 mL/min/kg,H (H (High permeability)”: A2B (B2A)>5),H (H (High permeability)”: A2B (B2A)>5),N (N (Non-substrate)”: ER<2.5)
"Cc1n[nH]c2c1N=C(c1c(F)cccc1F)Nc1c(F)cc(N3CCOCC3)cc1-2 [Example 30, 4-(5-(2,6-difluorophenyl)-7-fluoro-3-methyl-1,6-dihydrobenzo[d]pyrazolo[3,4-f][1,3]diazepin-9-yl)morpholine]",6.3 to 14.7 mL/min/kg,H (H (High permeability)”: A2B (B2A)>5),H (H (High permeability)”: A2B (B2A)>5),N (N (Non-substrate)”: ER<2.5)
"Cc1n[nH]c2c1N=C(c1c(F)cccc1F)Nc1c-2cc(N2CCO[C@@H](C)C2)nc1C [Example 40, (S)-4-(5-(2,6-difluorophenyl)-3,7-dimethyl-1,6-dihydropyrazolo[4,3-d]pyrido[4,3-f][1,3]diazepin-9-yl)-2-methylmorpholine]",< 6.3 mL/min/kg,H (H (High permeability)”: A2B (B2A)>5),H (H (High permeability)”: A2B (B2A)>5),N (N (Non-substrate)”: ER<2.5)
"Cc1n[nH]c2c1N=C(c1c(F)cc(F)cc1F)Nc1ccc(N3CCOCC3)cc1-2 [Example 27, 4-[3-methyl-5-(2,4,6-trifluorophenyl)-1,6-dihydropyrazolo[4,3-d][1,3]benzodiazepin-9-yl]morpholine]",6.3 to 14.7 mL/min/kg,H (H (High permeability)”: A2B (B2A)>5),H (H (High permeability)”: A2B (B2A)>5),N (N (Non-substrate)”: ER<2.5)

# Next, values leading:
CLhep predicted at 1 µM [1],Caco-2 A2B (10^−6 cm/s) (Caco-2 cells),Caco-2 B2A (10^−6 cm/s) (Caco-2 cells),Caco-2 ER (Caco-2 cells),Compound
< 6.3 mL/min/kg,H (H (High permeability)”: A2B (B2A)>5),H (H (High permeability)”: A2B (B2A)>5),N (N (Non-substrate)”: ER<2.5),"[2H]C([2H])([2H])c1n[nH]c2c1N=C(c1c(F)cccc1F)Nc1ccc(N3CCOCC3)cc1-2 [Example 33, 4-[5-(2,6-difluorophenyl)-3-(trideuteriomethyl)-1,6-dihydropyrazolo[4,3-d][1,3]benzodiazepin-9-yl]morpholine]"
6.3 to 14.7 mL/min/kg,H (H (High permeability)”: A2B (B2A)>5),H (H (High permeability)”: A2B (B2A)>5),N (N (Non-substrate)”: ER<2.5),"Fc1cccc(F)c1C1=Nc2c(C(F)F)n[nH]c2-c2cc(N3CCOCC3)ncc2N1 [Example 10, 4-[5-(difluoromethyl)-8-(2,6-difluorophenyl)-3,4,7,9,12-pentazatricyclo[8.4.0.02,6]tetradeca-1(10),2(6),4,7,11,13-hexaen-13-yl]morpholine]"
6.3 to 14.7 mL/min/kg,H (H (High permeability)”: A2B (B2A)>5),H (H (High permeability)”: A2B (B2A)>5),N (N (Non-substrate)”: ER<2.5),"Cc1n[nH]c2c1N=C(c1c(F)cccc1F)Nc1cnc(N3CCO[C@@H](C(F)(F)F)C3)cc1-2 [Example 55, (2R)-4-[8-(2,6-difluorophenyl)-5-methyl-3,4,7,9,12-pentazatricyclo[8.4.0.02,6]tetradeca-1(10),2(6),4,7,11,13-hexaen-13-yl]-2-(trifluoromethyl)morpholine]"
< 6.3 mL/min/kg,H (H (High permeability)”: A2B (B2A)>5),H (H (High permeability)”: A2B (B2A)>5),N (N (Non-substrate)”: ER<2.5),"Cc1n[nH]c2c1N=C(c1c(F)cccc1F)Nc1c-2cc(N2CCN(CC(C)F)CC2)nc1C (racemic) [Example 20, 8-(2,6-difluorophenyl)-13-[4-(2-fluoropropyl)piperazin-1-yl]-5,11-dimethyl-3,4,7,9,12-pentazatricyclo[8.4.0.02,6]tetradeca-1(10),2(6),4,7,11,13-hexaene]"
< 6.3 mL/min/kg,H (H (High permeability)”: A2B (B2A)>5),H (H (High permeability)”: A2B (B2A)>5),N (N (Non-substrate)”: ER<2.5),"Cc1n[nH]c2c1N=C(c1c(F)cccc1F)Nc1cnc(-c3cnn(C(F)F)c3)cc1-2 [Example 1, 9-(1-(difluoromethyl)-1H-pyrazol-4-yl)-5-(2,6-difluorophenyl)-3-methyl-1,6-dihydropyrazolo[4,3-d]pyrido[4,3-f][1,3]diazepine]"
6.3 to 14.7 mL/min/kg,H (H (High permeability)”: A2B (B2A)>5),H (H (High permeability)”: A2B (B2A)>5),N (N (Non-substrate)”: ER<2.5),"Cc1n[nH]c2c1N=C(c1c(F)cccc1F)Nc1c-2cc(N2CCOCC2)nc1C [Example 8, 4-[8-(2,6-difluorophenyl)-5,11-dimethyl-3,4,7,9,12-pentazatricyclo[8.4.0.02,6]tetradeca-1(10),2(6),4,7,11,13-hexaen-13-yl]morpholine]"
